From patent US8758816B2, “Compositions comprising azelastine and methods of use thereof” (priority 2004, dated 2014)

System: patients with seasonal allergic rhinitis (SAR)
Experiment: MP 428 study: individual symptom severity scores (runny nose, itchy nose, sneezing, congestion; 0-3 scale)
Type: in vivo, human
Conditions: Intent-to-Treat Population
Method: A two-week, randomized, double-blind study, which evaluated the effects of the co-administration of ASTELIN® (azelastine hydrochloride (HCl)) and FLONASE® (fluticasone propionate) compared to either product alone in patients with seasonal allergic rhinitis (SAR) was conducted during the 2006 Texas mountain cedar season. After a 5-day placebo lead-in period, 151 patients with moderate-to-severe allergic rhinitis symptoms were randomized to either: (1) (49 total patients) ASTELIN® (azelastine hydrochloride (HCl)) plus placebo saline nasal spray 2 sprays per nostril, 15 minutes apart, twice daily (AM & PM); (2) (50 total patients) FLONASE® (fluticasone propionate) plus placebo saline nasal spray, 2 sprays per nostril, 15 minutes apart, once daily (AM) and two sessions of placebo saline nasal spray, 2 sprays per nostril, 15 minutes apart (PM); or (3) (52 total patients) the co-administration of ASTELIN® (azelastine hydrochloride (HCl)) 2 sprays per nostril plus FLONASE® (fluticasone propionate) 2 sprays per nostril (AM), 15 minutes apart, and ASTELIN® (azelastine hydrochloride (HCl)) 2 sprays per nostril plus placebo saline nasal spray, 15 minutes apart, (PM) for a 2-week double-blind treatment period.
The primary efficacy variable was the change from baseline in the Total Nasal Symptom Score (TNSS), which comprised sneezing, itchy nose, runny nose, and nasal congestion (individual symptoms scores were assigned a value between 0 and 3, where 0=no symptoms and 3=severe symptoms). This study was not statistically designed to assess the differences between ASTELIN® and FLONASE®.
The results of the clinical trial are summarized and presented in Appendix A hereinbelow and in FIGS. 1-6. […] FIGS. 2-5 show the mean improvement in severity score (0-3 scale) from baseline for the symptoms of runny nose, itchy nose, sneezing and congestion, respectively.

## CCC(=O)O[C@]1(C(=O)SCF)[C@H](C)C[C@H]2[C@@H]3C[C@H](F)C4=CC(=O)C=C[C@]4(C)[C@@]3(F)[C@@H](O)C[C@@]21C [Fluticasone, fluticasone propionate]
Day 12
  Percent Change from Baseline in AM and PM Combined Nasal Symptom Score: Congestion, LS Mean: −26.02%
  Percent Change from Baseline in AM and PM Combined Nasal Symptom Score: Congestion, Mean: −27.05%
  Percent Change from Baseline in AM and PM Combined Nasal Symptom Score: Congestion, Median: −27.93%
  Percent Change from Baseline in AM and PM Combined Nasal Symptom Score: Itchy Nose, LS Mean: −29.96%
  Percent Change from Baseline in AM and PM Combined Nasal Symptom Score: Itchy Nose, Mean: −29.58%
  Percent Change from Baseline in AM and PM Combined Nasal Symptom Score: Itchy Nose, Median: −30.22%
  Percent Change from Baseline in AM and PM Combined Nasal Symptom Score: Runny Nose, LS Mean: −31.33%
  Percent Change from Baseline in AM and PM Combined Nasal Symptom Score: Runny Nose, Mean: −31.86%
  Percent Change from Baseline in AM and PM Combined Nasal Symptom Score: Runny Nose, Median: −25.62%
  Percent Change from Baseline in AM and PM Combined Nasal Symptom Score: Sneezing, LS Mean: −33.86%
  Percent Change from Baseline in AM and PM Combined Nasal Symptom Score: Sneezing, Mean: −31.18%
  Percent Change from Baseline in AM and PM Combined Nasal Symptom Score: Sneezing, Median: −35.69%
Day 13
  Change from Baseline in AM and PM Combined Nasal Symptom Score: Congestion, LS Mean: −1.55
  Change from Baseline in AM and PM Combined Nasal Symptom Score: Congestion, Mean: −1.59
  Change from Baseline in AM and PM Combined Nasal Symptom Score: Congestion, Median: −1.43
  Change from Baseline in AM and PM Combined Nasal Symptom Score: Itchy Nose, LS Mean: −1.64
  Change from Baseline in AM and PM Combined Nasal Symptom Score: Itchy Nose, Mean: −1.62
  Change from Baseline in AM and PM Combined Nasal Symptom Score: Itchy Nose, Median: −1.42
  Change from Baseline in AM and PM Combined Nasal Symptom Score: Runny Nose, LS Mean: −1.78
  Change from Baseline in AM and PM Combined Nasal Symptom Score: Runny Nose, Mean: −1.78
  Change from Baseline in AM and PM Combined Nasal Symptom Score: Runny Nose, Median: −2.00
  Change from Baseline in AM and PM Combined Nasal Symptom Score: Sneezing, LS Mean: −1.98
  Change from Baseline in AM and PM Combined Nasal Symptom Score: Sneezing, Mean: −1.84
  Change from Baseline in AM and PM Combined Nasal Symptom Score: Sneezing, Median: −1.83
  Percent Change from Baseline in AM and PM Combined Nasal Symptom Score: Congestion, LS Mean: −28.59%
  Percent Change from Baseline in AM and PM Combined Nasal Symptom Score: Congestion, Mean: −28.95%
  Percent Change from Baseline in AM and PM Combined Nasal Symptom Score: Congestion, Median: −26.38%
  Percent Change from Baseline in AM and PM Combined Nasal Symptom Score: Itchy Nose, LS Mean: −31.14%
  Percent Change from Baseline in AM and PM Combined Nasal Symptom Score: Itchy Nose, Mean: −30.81%
  Percent Change from Baseline in AM and PM Combined Nasal Symptom Score: Itchy Nose, Median: −31.23%
  Percent Change from Baseline in AM and PM Combined Nasal Symptom Score: Runny Nose, LS Mean: −30.96%
  Percent Change from Baseline in AM and PM Combined Nasal Symptom Score: Runny Nose, Mean: −30.84%
  Percent Change from Baseline in AM and PM Combined Nasal Symptom Score: Runny Nose, Median: −33.33%
  Percent Change from Baseline in AM and PM Combined Nasal Symptom Score: Sneezing, LS Mean: −42.84%
  Percent Change from Baseline in AM and PM Combined Nasal Symptom Score: Sneezing, Mean: −40.87%
  Percent Change from Baseline in AM and PM Combined Nasal Symptom Score: Sneezing, Median: −35.42%
Day 14
  Change from Baseline in AM and PM Combined Nasal Symptom Score: Congestion, LS Mean: −1.53
  Change from Baseline in AM and PM Combined Nasal Symptom Score: Congestion, Mean: −1.59
  Change from Baseline in AM and PM Combined Nasal Symptom Score: Congestion, Median: −1.30
  Change from Baseline in AM and PM Combined Nasal Symptom Score: Itchy Nose, LS Mean: −1.76
  Change from Baseline in AM and PM Combined Nasal Symptom Score: Itchy Nose, Mean: −1.74
  Change from Baseline in AM and PM Combined Nasal Symptom Score: Itchy Nose, Median: −1.57
  Change from Baseline in AM and PM Combined Nasal Symptom Score: Runny Nose, LS Mean: −1.89
  Change from Baseline in AM and PM Combined Nasal Symptom Score: Runny Nose, Mean: −1.88
  Change from Baseline in AM and PM Combined Nasal Symptom Score: Runny Nose, Median: −2.15
  Change from Baseline in AM and PM Combined Nasal Symptom Score: Sneezing, LS Mean: −1.87
  Change from Baseline in AM and PM Combined Nasal Symptom Score: Sneezing, Mean: −1.70
  Change from Baseline in AM and PM Combined Nasal Symptom Score: Sneezing, Median: −1.83
  Percent Change from Baseline in AM and PM Combined Nasal Symptom Score: Congestion, LS Mean: −28.37%
  Percent Change from Baseline in AM and PM Combined Nasal Symptom Score: Congestion, Mean: −29.09%
  Percent Change from Baseline in AM and PM Combined Nasal Symptom Score: Congestion, Median: −24.53%
  Percent Change from Baseline in AM and PM Combined Nasal Symptom Score: Itchy Nose, LS Mean: −33.39%
  Percent Change from Baseline in AM and PM Combined Nasal Symptom Score: Itchy Nose, Mean: −33.38%
  Percent Change from Baseline in AM and PM Combined Nasal Symptom Score: Itchy Nose, Median: −33.33%
  Percent Change from Baseline in AM and PM Combined Nasal Symptom Score: Runny Nose, LS Mean: −36.10%
  Percent Change from Baseline in AM and PM Combined Nasal Symptom Score: Runny Nose, Mean: −35.65%
  Percent Change from Baseline in AM and PM Combined Nasal Symptom Score: Runny Nose, Median: −41.75%
  Percent Change from Baseline in AM and PM Combined Nasal Symptom Score: Sneezing, LS Mean: −39.31%
  Percent Change from Baseline in AM and PM Combined Nasal Symptom Score: Sneezing, Mean: −36.07%
  Percent Change from Baseline in AM and PM Combined Nasal Symptom Score: Sneezing, Median: −33.94%
Overall (Day 2 to Day 14)
  Change from Baseline in AM and PM Combined Nasal Symptom Score: Congestion, LS Mean: −1.14
  Change from Baseline in AM and PM Combined Nasal Symptom Score: Congestion, Mean: −1.19
  Change from Baseline in AM and PM Combined Nasal Symptom Score: Congestion, Median: −0.99
  Change from Baseline in AM and PM Combined Nasal Symptom Score: Itchy Nose, LS Mean: −1.25
  Change from Baseline in AM and PM Combined Nasal Symptom Score: Itchy Nose, Mean: −1.24
  Change from Baseline in AM and PM Combined Nasal Symptom Score: Itchy Nose, Median: −0.95
  Change from Baseline in AM and PM Combined Nasal Symptom Score: Runny Nose, LS Mean: −1.34
  Change from Baseline in AM and PM Combined Nasal Symptom Score: Runny Nose, Mean: −1.36
  Change from Baseline in AM and PM Combined Nasal Symptom Score: Runny Nose, Median: −1.04
  Change from Baseline in AM and PM Combined Nasal Symptom Score: Sneezing, LS Mean: −1.52
  Change from Baseline in AM and PM Combined Nasal Symptom Score: Sneezing, Mean: −1.44
  Change from Baseline in AM and PM Combined Nasal Symptom Score: Sneezing, Median: −1.34
  Percent Change from Baseline in AM and PM Combined Nasal Symptom Score: Congestion, LS Mean: −21.11%
  Percent Change from Baseline in AM and PM Combined Nasal Symptom Score: Congestion, Mean: −21.68%
  Percent Change from Baseline in AM and PM Combined Nasal Symptom Score: Congestion, Median: −18.72%
  Percent Change from Baseline in AM and PM Combined Nasal Symptom Score: Itchy Nose, LS Mean: −25.54%
  Percent Change from Baseline in AM and PM Combined Nasal Symptom Score: Itchy Nose, Mean: −25.67%
  Percent Change from Baseline in AM and PM Combined Nasal Symptom Score: Itchy Nose, Median: −18.89%
  Percent Change from Baseline in AM and PM Combined Nasal Symptom Score: Runny Nose, LS Mean: −23.02%
  Percent Change from Baseline in AM and PM Combined Nasal Symptom Score: Runny Nose, Mean: −23.19%
  Percent Change from Baseline in AM and PM Combined Nasal Symptom Score: Runny Nose, Median: −21.99%
  Percent Change from Baseline in AM and PM Combined Nasal Symptom Score: Sneezing, LS Mean: −31.80%
  Percent Change from Baseline in AM and PM Combined Nasal Symptom Score: Sneezing, Mean: −31.11%
  Percent Change from Baseline in AM and PM Combined Nasal Symptom Score: Sneezing, Median: −33.13%
